In patent US5047397A, “Linear analogs of atrial natriuretic peptides” (California Biotechnology Inc., priority 1988, dated 1991):
*1 amine or outer side, *2 acyl side, *3 side chain or, on linkers, in order; H or OH if unused. Where a SMILES comes first, the peptide text is derived from it. Where no end group is shown, it is not given here. [ ]: non-standard residue; d: D form. The star is where a group is joined. Phenylacetyl(4-Ph) = O=C(Cc1ccc(-c2ccccc2)cc1)*; Propanoyl(3,3-Ph2) = O=C(CC(c1ccccc1)c1ccccc1)*; Acetyl(2-naphthyloxy) = O=C(COc1ccc2ccccc2c1)*; Acetyl(2-naphthyl) = O=C(Cc1ccc2ccccc2c1)*; Fmoc = O=C(OCC1c2ccccc2-c2ccccc21)*; Hydrocinnamoyl = O=C(CCc1ccccc1)*; X1 = O=C(Cc1ccc(N[*:1])cc1)[*:2]; Orn = NCCC[C@H](N)C(=O)O; X6 = O=C(C(Br)c1ccccc1)*; Aoc = NCCCCCCCC(=O)O; Ahx = NCCCCCC(=O)O; Ava = NCCCCC(=O)O; GABA = NCCCC(=O)O; NHiBu = CC(C)CN*; Sar = CNCC(=O)O

Target: T1, specific ANP receptor sites on BASM or BAE cells (Bos taurus, UniProt P10730)
T1 construct: specific receptor sites on BASM or BAE cells; endogenous in cells; host or cells: cultured BASM and BAE cells
T1 sequence (P10730 42-537): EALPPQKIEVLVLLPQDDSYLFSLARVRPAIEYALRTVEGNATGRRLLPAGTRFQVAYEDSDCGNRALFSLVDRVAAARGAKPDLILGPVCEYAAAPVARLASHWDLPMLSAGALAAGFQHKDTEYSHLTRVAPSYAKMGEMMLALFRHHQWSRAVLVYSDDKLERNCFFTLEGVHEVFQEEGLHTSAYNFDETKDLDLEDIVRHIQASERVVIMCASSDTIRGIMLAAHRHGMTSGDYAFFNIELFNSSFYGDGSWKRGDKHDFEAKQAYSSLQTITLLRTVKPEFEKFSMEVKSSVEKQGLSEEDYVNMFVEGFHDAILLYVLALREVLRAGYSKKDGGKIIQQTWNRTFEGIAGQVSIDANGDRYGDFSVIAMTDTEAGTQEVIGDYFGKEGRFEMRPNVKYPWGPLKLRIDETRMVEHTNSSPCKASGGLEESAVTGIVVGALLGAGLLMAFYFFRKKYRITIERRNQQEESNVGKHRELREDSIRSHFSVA
Assay: Competitive displacement receptor binding of (125I)-rANP(126-150) on cultured cells
Set-up: species or system bovine
Details: for Ki(app): concentration of unlabeled peptide displacing 50% of maximal binding of 0.5 nM (125I)-rANP(126-150), BASM or BAE cells
Excerpt: Analogous "competitive displacement" receptor binding assays are considered commonplace in the art for examining specific ligand-receptor interactions.
Assuming these ANP analogs act at one or more ANP receptor sites, then increased receptor affinity should reflect increased biological potency.

Compound | Ki(app) [µM] | receptor binding / activity as judged by Ki, in words
CC[C@H](C)[C@H](NC(=O)[C@H](CCCNC(=N)N)NC(=O)[C@H](CC(=O)O)NC(=O)[C@@H](NC(=O)[C@H](CCCNC(=N)N)NC(=O)CN(C)C(=O)CNC(=O)Cc1ccc2ccccc2c1)[C@@H](C)CC)C(N)=O [AP320, (2-NA)--G--(Sar)--R--I--D--R--I--NH2] ({Acetyl(2-naphthyl)}-G[Sar]RIDRI-NH2) | 0.0474 | 
CC[C@H](C)[C@H](NC(=O)[C@H](CCCNC(=N)N)NC(=O)[C@H](CC(=O)O)NC(=O)[C@@H](NC(=O)[C@H](CCCNC(=N)N)NC(=O)Cc1ccc(NC(=O)C(Br)c2ccccc2)cc1)[C@@H](C)CC)C(N)=O (some centres unmarked) [AP818] (X6-[X1]RIDRI-NH2) | 0.0205 | 
CC[C@H](C)[C@H](NC(=O)[C@H](CCCNC(=N)N)NC(=O)[C@H](CC(=O)O)NC(=O)[C@@H](NC(=O)[C@H](CCCCN)NC(=O)CNC(=O)CNC(=O)Cc1ccc2ccccc2c1)[C@@H](C)CC)C(N)=O [AP523, (2-NA)--G--G--K--I--D--R--I--NH2] ({Acetyl(2-naphthyl)}-GGKIDRI-NH2) | 0.0367 | 
CC[C@H](C)[C@H](NC(=O)[C@H](CCCNC(=N)N)NC(=O)[C@H](CC(=O)O)NC(=O)[C@@H](NC(=O)[C@H](CCCN)NC(=O)Cc1ccc(NC(=O)COc2ccc3ccccc3c2)cc1)[C@@H](C)CC)C(N)=O [AP815] ({Acetyl(2-naphthyloxy)}-[X1][Orn]IDRI-NH2) | 0.01 | 
CC[C@H](C)[C@H](NC(=O)[C@H](CCCNC(=N)N)NC(=O)[C@H](CC(=O)O)NC(=O)[C@@H](NC(=O)[C@H](CCCNC(=N)N)NC(=O)CNC(=O)CNC(=O)OCC1c2ccccc2-c2ccccc21)[C@@H](C)CC)C(N)=O [AP311, (FMOC)--G--G--R--I--D--R--I--NH2] (Fmoc-GGRIDRI-NH2) | 0.01033 | 
CC[C@H](C)[C@H](NC(=O)[C@H](CCCNC(=N)N)NC(=O)[C@H](CC(=O)O)NC(=O)[C@@H](NC(=O)[C@H](CCCNC(=N)N)NC(=O)CNC(=O)CNC(=O)CCc1ccccc1)[C@@H](C)CC)C(N)=O [AP132, (desNH2 --F)--G--G--R--I--D--R--I--NH2] (Hydrocinnamoyl-GGRIDRI-NH2) | 0.01015 | 
CC[C@H](C)[C@H](NC(=O)[C@H](CCCNC(=N)N)NC(=O)CNC(=O)CNC(=O)Cc1ccc2ccccc2c1)C(=O)N[C@@H](CC(=O)O)C(=O)N[C@@H](CCCNC(=N)N)C(=O)N[C@H](CC(C)C)C(N)=O [AP536, (2-NA)--G--G--R--I--D--R--L^ --NH2)] ({Acetyl(2-naphthyl)}-GGRIDR[dL]-NH2) | 0.1064 | 
CC[C@H](C)[C@H](NC(=O)[C@H](CCCNC(=N)N)NC(=O)[C@H](CC(=O)O)NC(=O)[C@@H](NC(=O)[C@H](CCCNC(=N)N)NC(=O)CNC(=O)CNC(=O)COc1ccc2ccccc2c1)[C@@H](C)CC)C(N)=O [AP319, (2-NOA)--G--G--R--I--D--R--I--NH2] ({Acetyl(2-naphthyloxy)}-GGRIDRI-NH2) | 0.006 | 
CC[C@H](C)[C@H](NC(=O)[C@H](CCCNC(=N)N)NC(=O)[C@H](CC(=O)O)NC(=O)[C@@H](NC(=O)[C@H](CCCNC(=N)N)NC(=O)CCCCNC(=O)OCC1c2ccccc2-c2ccccc21)[C@@H](C)CC)C(N)=O [AP323, (FMOC)--NH(CH2)4 CO--R--I--D--R--I--NH2] ({Fmoc-Ava}-RIDRI-NH2) | 0.1626 | 
RIDRIG-NH2 [AP125, R--I--D--R--I--G--NH2] | > 0.2 | do not
CC[C@H](C)[C@H](NC(=O)[C@H](CCCNC(=N)N)NC(=O)[C@H](CC(=O)O)NC(=O)[C@@H](NC(=O)[C@H](CCCCN)NC(=O)Cc1ccc(NC(=O)COc2ccc3ccccc3c2)cc1)[C@@H](C)CC)C(N)=O [AP798] ({Acetyl(2-naphthyloxy)}-[X1]KIDRI-NH2) | 0.00395 | 
CC[C@H](C)[C@H](NC(=O)[C@H](CCCNC(=N)N)NC(=O)[C@H](CC(=O)O)NC(=O)[C@@H](NC[C@H](CCCCN)NC(=O)Cc1ccc(NC(=O)COc2ccc3ccccc3c2)cc1)[C@@H](C)CC)C(N)=O [AP808] | 0.0989 | 
CC[C@H](C)[C@H](NC(=O)[C@H](CCCNC(=N)N)NC(=O)[C@H](CC(=O)O)NC(=O)[C@@H](NC(=O)[C@H](CCCNC(=N)N)NC(=O)CCCCCNC(=O)Cc1ccc2ccccc2c1)[C@@H](C)CC)C(N)=O [AP329, (2-NA)--NH(CH2)5 CO--R--I--D--R--I--NH2] ({Acetyl(2-naphthyl)-Ahx}-RIDRI-NH2) | 0.14778 | 
CC[C@H](C)[C@H](NC(=O)[C@H](CCCNC(=N)N)NC(=O)CNC(=O)CNC(=O)Cc1ccc2ccccc2c1)C(=O)N[C@@H](CC(=O)O)C(=O)N[C@@H](CCCNC(=N)N)C(=O)NCC(C)C [AP510] ({Acetyl(2-naphthyl)}-GGRIDR-NHiBu) | 0.116 | 
CC[C@H](C)[C@H](NC(=O)[C@H](CCCNC(=N)N)NC(=O)[C@H](CC(=O)O)NC(=O)[C@@H](NC(=O)[C@H](CCCNC(=N)N)NC(=O)CCCCCNC(=O)COc1ccc2ccccc2c1)[C@@H](C)CC)C(N)=O [AP325, (2-NOA)--NH(CH2)5 CO--R--I--D--R--I--NH2] ({Acetyl(2-naphthyloxy)-Ahx}-RIDRI-NH2) | > 0.1 | 
CC[C@H](C)[C@H](NC(=O)[C@H](CCCNC(=N)N)NC(=O)[C@H](CC(=O)O)NC(=O)[C@@H](NC(=O)[C@H](CCCNC(=N)N)NC(=O)CCCCCCCNC(=O)COc1ccc2ccccc2c1)[C@@H](C)CC)C(N)=O [AP789, (2-NOA)--NH--(CH2)7 --CO--R--I--D--R--I--NH2] ({Acetyl(2-naphthyloxy)-Aoc}-RIDRI-NH2) | 0.38 | 
CC[C@@H](C)[C@@H](NC(=O)[C@H](CCCNC(=N)N)NC(=O)CNC(=O)CNC(=O)[C@H](Cc1ccccc1)NC(=O)[C@H](C)N)C(=O)N[C@@H](CC(=O)O)C(=O)N[C@@H](CCCNC(=N)N)C(=O)N[C@H](C(=O)NCC(=O)N[C@@H](C)C(N)=O)[C@@H](C)CC [AP302, A--F--G--G--R--I^ --D--R--I--G--A--NH2] (H-AFGGR[dI]DRIGA-NH2) | 0.0189 | 
CC[C@H](C)[C@H](NC(=O)[C@H](CCCNC(=N)N)NC(=O)[C@H](CC(=O)O)NC(=O)[C@@H](NC(=O)[C@H](CCCNC(=N)N)NC(=O)CNC(=O)CNC(=O)Cc1ccc(-c2ccccc2)cc1)[C@@H](C)CC)C(N)=O [AP317, (4-BPA)--G--G--R--I--D--R--I--NH2] ({Phenylacetyl(4-Ph)}-GGRIDRI-NH2) | 0.1238 | 
CC[C@H](C)CNC(=O)[C@H](CCCNC(=N)N)NC(=O)[C@H](CC(=O)O)NC(=O)[C@@H](NC[C@H](CCCCN)NC(=O)Cc1ccc(NC(=O)c2ccc3ccccc3c2)cc1)[C@@H](C)CC [AP814] | 0.033 | 
CC[C@H](C)[C@H](NC(=O)[C@H](CCCNC(=N)N)NC(=O)[C@H](CCC(=O)O)NC(=O)[C@@H](NC(=O)[C@H](CCCNC(=N)N)NC(=O)CNC(=O)CNC(=O)Cc1ccc2ccccc2c1)[C@@H](C)CC)C(N)=O [AP518, (2-NA)--G--G--R--I--E--R--I--NH2] ({Acetyl(2-naphthyl)}-GGRIERI-NH2) | 0.038 | 
CC[C@@H](C)[C@@H](NC(=O)[C@H](CCCNC(=N)N)NC(=O)[C@H](CC(=O)O)NC(=O)[C@@H](NC(=O)[C@H](CCCNC(=N)N)NC(=O)CNC(=O)CNC(=O)[C@H](Cc1ccccc1)NC(=O)[C@H](C)N)[C@@H](C)CC)C(=O)NCC(=O)N[C@@H](C)C(N)=O [AP305, A--F--G--G--R--I--D--R--I^ --G--A--NH2] (H-AFGGRIDR[dI]GA-NH2) | 0.07062 | 
AFGGRIDRIG-NH2 [AP102, A--F--G--G--R--I--D--R--I--G--NH2] | 0.01404 | 
CC[C@H](C)[C@H](NC(=O)[C@H](CCCNC(=N)N)NC(=O)[C@H](CC(=O)O)NC(=O)[C@@H](NC(=O)[C@H](CCCNC(=N)N)NC(=O)CCCNC(=O)Cc1ccc2ccccc2c1)[C@@H](C)CC)C(N)=O [AP327, (2-NA)--NH(CH2)3 CO--R--I-- D--R--I--NH2] ({Acetyl(2-naphthyl)-GABA}-RIDRI-NH2) | 0.184 | 
CC[C@H](C)[C@H](NC(=O)[C@H](CCCNC(=N)N)NC(=O)[C@H](CC(=O)O)NC(=O)[C@@H](NC(=O)[C@H](CCCNC(=N)N)NC(=O)CNC(=O)CNC(=O)Cc1ccc2ccccc2c1)[C@@H](C)CC)C(=O)NCCCCC(N)=O [AP526, (2-NA)--G--G--R--I--D--R--I--NH--(CH2)4 --CONH2] ({Acetyl(2-naphthyl)}-GGRIDRI[Ava]-NH2) | 0.0505 | 
CC[C@H](C)[C@H](NC(=O)[C@H](CCCNC(=N)N)NC(=O)[C@H](CC(=O)O)NC(=O)[C@@H](NC(=O)[C@H](CC(C)C)NC(=O)CNC(=O)CNC(=O)Cc1ccc2ccccc2c1)[C@@H](C)CC)C(N)=O [AP512, (2-NA)--G--G--L--I--D--R--I--NH2] ({Acetyl(2-naphthyl)}-GGLIDRI-NH2) | > 0.16 | very low, if any, activity
FGGRIDRIGAA-NH2 [AP104, F--G--G--R--I--D--R--I--G--A--A--NH2] | 0.0025 | 
CC[C@H](C)[C@H](NC(=O)[C@H](CCCNC(=N)N)NC(=O)[C@H](CC(=O)O)NC(=O)[C@@H](NC(=O)[C@H](CCCNC(=N)N)NC(=O)CNC(=O)CNC(=O)CC(c1ccccc1)c1ccccc1)[C@@H](C)CC)C(=O)NCC(=O)N[C@@H](C)C(N)=O [AP331, (3-DPP)--G--G--R--I--D--R--I--G--A--NH2] ({Propanoyl(3,3-Ph2)}-GGRIDRIGA-NH2) | 0.00615 | 
